The source of these data is US11440923B2, “Substituted macrocyclic indole derivatives” (Bayer Aktiengesellschaft, priority 2017, dated 2022).

For data set [1] the following is noted: 11-membered ring.
In the next data set the test system is A2780 cells. The experiment in a line: Antiproliferation assay A2780 (Assay 7). It counts as cell-based. To be noted: 72 h, CellTiter-Glo; read-out: Antiproli A2780 IC50 median. The procedure: (§1) Assessment of the Anti-Proliferative Effect of Compounds in Different Cell Lines
(§2) The impact of compounds on the proliferation of different cell lines was assessed using the CellTiter-Glo® Luminescent Cell Viability reagent from Promega (G7573).
(§3) In parallel, cells were plated in a reference (day 0) plate for time zero determination. Cells were incubated in a humidified incubator at 37° C. overnight.
(§4) Rim wells were excluded. The cells were incubated for 72 h hours in a humidified incubator at 37° C. The day 0 plate was measured by adding 30 μL/well of CTG solution (CellTiter-Glo® Luminescent Cell Viability reagent, Promega G7573) to time zero wells in the reference plate followed by a 10 minutes incubation and luminescence reading at 0.1 ms. using the PHERAstar FS microplate reader (BMG Labtech).
(§5) After 72 h incubation, the treated plates were measured in the same way as the day 0 plate mentioned above. The Bella DRC Master Sheet was used to calculate IC50s, with CI=day 0 values and C0=DMSO control values.

The test system of the next data set is AMO-1 cells. The experiment in a line: Antiproliferation assay AMO-1 (Assay 7). It counts as cell-based. To be noted: 72 h, CellTiter-Glo; read-out: Antiproli AMO-1 IC50 median. The gist of the method: (§6)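 Cells were plated overnight at 37° C, then compound-treated for 72 h. Viability was measured by CellTiter-Glo luminescence.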
(In general: ATP-based viability assays read luminescence as a measure of living cells.)

A further data set deals with MV-4-11 cells. The experiment in a line: Antiproliferation assay MV-4-11 (Assay 7). It counts as cell-based. As to conditions: 72 h, CellTiter-Glo; read-out: Antiproli MV-4-11 IC50 median. The method, then:
as §1, §2, §3, §4, §5

The next data set has as its system REC-1 cells. The experiment in a line: Antiproliferation assay REC-1 (Assay 7). It counts as cell-based. To be noted: 72 h, CellTiter-Glo; read-out: Antiproli REC-1 IC50. The method, then:
as §1, §2, §3, §4, §5

For another data set, the system named is SNU-389 cells. The data set can be described thus: Antiproliferation assay SNU-389 (Assay 7). It counts as cell-based. To be noted: 72 h, CellTiter-Glo; read-out: Antiproli SNU-389 IC50. The procedure:
as §1, §2, §3, §4, §5

In another data set the test system is NCI-H23 cells. The data set can be described thus: Antiproliferation assay NCI-H23 (Assay 7). In kind it is cell-based. To be noted: 72 h, CellTiter-Glo; read-out: Antiproli NCI-H23 IC50. The procedure:
as §1, §2, §3, §4, §5

The subject of the next data set is SK-MEL-2 cells. The data set can be described thus: Antiproliferation assay SK-MEL-2 (Assay 7). It counts as cell-based. As to conditions: 72 h, CellTiter-Glo; read-out: Antiproli SK-MEL-2 IC50 median. The procedure: as §1, §2, §3, §4, §5
A further data set has as its system HMC-1-8 cells. The experiment in a line: Antiproliferation assay HMC-1-8 (Assay 7). In kind it is cell-based. To be noted: 72 h, CellTiter-Glo; read-out: Antiproli HMC-1-8 IC50 median. The method, boiled down: as §6
A further data set relates to SK-BR-3 cells. The experiment in a line: Antiproliferation assay SK-BR-3 (Assay 7). It counts as cell-based. As to conditions: 72 h, CellTiter-Glo; read-out: Antiproli SK-BR-3 IC50 median. The procedure: as §1, §2, §3, §4, §5
For another data set, the system named is A2058 cells. The experiment in a line: Antiproliferation assay A2058 (Assay 7). As to conditions: 72 h, CellTiter-Glo; read-out: Antiproli A2058 IC50. In kind it is cell-based. The method, then: as §1, §2, §3, §4, §5
In the next data set the target is MCL-1 (Homo sapiens (Human), UniProt Q07820, K194A/K197A/R201A). The experiment in a line: Protein-protein interaction assay MCL-1/Noxa BH3 peptide (MCL-1 assay, TR-FRET). It counts as binding. To be noted: read-out: MCL-1 Assay IC50 (median). The method, boiled down: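 IC50 came from a 4-parameter regression of the 665/620 nm emission ratio, normalized to DMSO controls. The mix held 1 nM MBP-fused MCL-1 (residues 173-321), a biotin-Noxa BH3 tracer and compound in Tris buffer pH 7, incubated 10 min plus 1 h at 22° C., then overnight at 4° C.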
Chain of MCL-1 (Q07820 whole entry, looked up, stated change not applied, the tested form may be a part): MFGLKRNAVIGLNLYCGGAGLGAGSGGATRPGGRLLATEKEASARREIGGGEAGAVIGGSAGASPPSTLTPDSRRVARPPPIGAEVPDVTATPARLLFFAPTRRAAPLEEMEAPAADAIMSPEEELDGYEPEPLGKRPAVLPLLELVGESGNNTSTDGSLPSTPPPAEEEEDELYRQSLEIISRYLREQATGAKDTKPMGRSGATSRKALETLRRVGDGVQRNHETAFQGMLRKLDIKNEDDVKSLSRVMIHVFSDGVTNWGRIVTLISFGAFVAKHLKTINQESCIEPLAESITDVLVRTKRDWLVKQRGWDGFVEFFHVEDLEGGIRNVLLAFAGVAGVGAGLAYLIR
(TR-FRET usually uses a lanthanide donor and a delayed reading to cut background.)

The next data set relates to SUDHL10 cells. The experiment in a line: Induction of cytotoxicity in SUDHL10 cells (Assay 6). In kind it is cell-based. As to conditions: 5 h, CellTiter-Glo; read-out: Cytotox SUDHL10 IC50 (median). The gist of the method:
(§7)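 Following overnight seeding at 37 °C, cells are treated with compound for 5 h, after which CellTiter-Glo reagent is added and luminescence measured following a 15 min room-temperature shake.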

Another data set concerns SUDHL5 cells. The data set can be described thus: Induction of cytotoxicity in SUDHL5 cells (Assay 6). It counts as cell-based. As to conditions: 5 h, CellTiter-Glo; read-out: Cytotox SUDHL5 IC50 (median). The gist of the method: as §7
The target in another data set is MBP-MCL1 (Homo sapiens (Human), UniProt Q07820, K194A/K197A/R201A). The data set can be described thus: X-ray crystallographic analysis of MBP-MCL1 in complex with inhibitor. It counts as binding. As to conditions: MBP-MCL1 co-crystal structure. The source says:
For clarity only the ligand non-hydrogen atoms are shown. Carbon atom C7 unambiguously features the (R)-configuration and the bound atropisomer as defined by the C4-C38 axis is the (Ra)-configuration.
The X-ray crystallographic analysis described in the MCL-1 structural analysis section infra, provides an atomic resolution view of the relative arrangement of the atoms of MBP-MCL1 in complex with example 47.

Read-outs that look alike come from different tables or passages of the source.

Chain of MBP-MCL1 (Q07820 whole entry, looked up, stated change not applied): as the sequence (Q07820 whole entry, looked up, stated change not applied, the tested form may be a part) above

The compound `CCOC(=O)c1[nH]c2c(-c3c(C(O)C4CC4)nn(C)c3CC)c(Cl)ccc2c1CCCOc1cccc2cc(F)ccc12` (racemic) had a ring closure, isolated yield in [1] (the molecule shown is the open-chain precursor, crosslinker bond, (Z)-1,4-dichlorobut-2-ene/Cs2CO3/NaI, MeCN, 197.0 mM, 70.0 °C) of 59%.

Take `CCOC(=O)c1[nH]c2c(-c3c(C(O)CCN4CCOCC4)nn(C)c3CC)c(F)ccc2c1CCCOc1cccc2ccccc12` (racemic): the ring closure, isolated yield in data set [1] (the molecule shown is the open-chain precursor, crosslinker bond, (Z)-1,4-dichlorobut-2-ene/Cs2CO3/NaI, MeCN, 98.0 mM, […]) is 50%.

Consider `Cc1c2c(nn1C)C(CCN1CCOCC1)OCCCCn1c(C(=O)O)c(CCCOc3cccc4ccccc34)c3cccc-2c31` (stereo not drawn) [Example 04], for which the IC50 (in general, the point on the concentration scale where inhibition reaches its midpoint) stood at 14.3 µM in the data set with A2780 cells; 2.56 µM in the data set with AMO-1 cells; 1.75 µM in the data set with MV-4-11 cells; 21 µM with REC-1 cells; 10.7 µM in the data set on SNU-389 cells.

With `Cc1c2c(nn1C)C(CCN1CCOCC1)OCCCCn1c(C(=O)O)c(CCCOc3cccc4ccccc34)c3cccc-2c31` (stereo not drawn) [Example 05], the IC50 in the data set with A2780 cells worked out at 14.4 µM; with NCI-H23 cells, 6.98 µM; in the data set on AMO-1 cells, 9.47 µM; in the data set on MV-4-11 cells, 1.75 µM; in the data set on SK-MEL-2 cells it was 11.6 µM; with HMC-1-8 cells, 6.29 µM. In addition, the results for the IC50 with SK-BR-3 cells and with A2058 cells were 7.3 µM and 12.8 µM, respectively.

With `CCc1c2c(nn1C)[C@@H](CCN1CCOCC1)OCCCCn1c(C(=O)O)c(CCCOc3cccc4cc(F)ccc34)c3ccc(Cl)c-2c31` [Example 47, (+)-4-chloro-3-ethyl-7-{3-[(6-fluoronaphthalen-1-yl)oxy]propyl}-2-methyl-(15R)-[2-(morpholin-4-yl)ethyl]-2,10,11,12,13,15-hexahydropyrazolo[4′,3′:9,10][1,6]oxazacycloundecino[8,7,6-hi]indole-8-carboxylic Acid], the IC50 was found to be 0.00037 µM at MCL-1, 0.0079 µM in the data set on SUDHL10 cells and 0.0082 µM in the data set with SUDHL5 cells. The “interaction with the target MCL1 shown by X-ray structure of the complex” value at MBP-MCL1 was “clear and direct interaction”.

“(rac)-ethyl 4-chloro-3-ethyl-7-{3-[(6-fluoronaphthalen-1-yl)oxy]propyl}-2-methyl-(15-rac)-[2-(4-methylpiperazin-1-yl)ethyl]-2,10,11,12,13,15-hexahydropyrazolo[4′,3′:9,10][1,6]oxazacycloundecino[8,7,6-hi]indole-8-carboxylate” showed a ring closure, isolated yield in [1] (amine bond, PPh3/DTBAD, THF, 22.7 mM) of 49%.

Compound “ethyl (15-rac)-4-chloro-3-ethyl-15-[2-(3-rac-(fluoroazetidin-1-yl)ethyl]-7-{3-[(6-fluoronaphthalen-1-yl)oxy]propyl}-2-methyl-2,10,11,12,13,15-hexahydropyrazolo[4′,3′:9,10][1,6]oxazacycloundecino[8,7,6-hi]indole-8-carboxylate (Mixture of Stereoisomers)” returned a ring closure, isolated yield in data set [1] (amine bond, PPh3/DTBAD, THF, 69.2 mM) of 77%.
